Tests used:
[1] = test system: person two with long-standing TD; assay: Paced Auditory Serial Addition Test (PASAT) (Case 1); type: in vivo, human; settings: lower score better
Text: (§1) The tests showing such results included Simple Reaction Time, the Trail Making Test (both parts) and the Paced Auditory Serial Addition Test (PASAT). Choice reaction time, a test requiring both basic attention and concentration on a specific task that must be kept in mind, was slightly better on acamprosate, consistent with the hypothesis that general cognitive function, as opposed to simple attention, improves with acamprosate treatment.
(§2) The following tables report on the results of the neuropsychological tests (Drug I is memantine and Drug II is acamprosate): […]

[2] = test system: person two with long-standing TD; assay: Trail Making Test, Trails A (Case 1); type: in vivo, human; settings: lower score better
Text: as §1, §2

[3] = test system: person two with chronic schizophrenia and severe tardive dyskinesia; assay: Case Report 6: clinical observation of severe TD with blepharospasm in chronic schizophrenia; type: in vivo; settings: Case 6
Text: A corresponding physician the United Kingdom recently reported to me on the treatment of a person with chronic schizophrenia and severe tardive dyskinesia. As in Case 1, the patient's involuntary movements included severe blepharospasm. In addition, they had involuntary rhythmic peri-oral movements, and chorea-like movements of both hands, like the patient in Case 2. They had no cognitive complaints, nor were cognitive abnormalities noted on routine psychiatric examination.
The patient had developed symptoms of paranoid schizophrenia in 1991. The symptoms of psychosis included auditory hallucinations, bizarre delusions, and persecutory fears. […] They were subsequently hospitalized and stabilized on fluphenthixol decanoate, a depot neuroleptic given by intramuscular injections. Symptoms of TD developed in November, 1994, after 28 months of neuroleptic therapy. […] Beginning in October 1997 the patient was treated for their schizophrenia with 2 mg of risperidone alone. On this modest dose of an atypical neuroleptic, they had severe symptoms of TD for which they eagerly sought treatment.
Memantine was started on November 28, 1997 at a dose of 5 mg per day, increased after 7 days to 5 mg twice a day, and after another 7 days to 5 mg three times a day. […] Further dosage increases were attempted to completely abolish the involuntary movements. The maximum dose attainable without side effects was 10 mg twice a day; above that level the patient had complaints of dizziness. That dose of memantine was maintained through May of […].
In May 1998 the patient was started on acamprosate, in pursuit of complete elimination of their involuntary movements. Initially, acamprosate 333 mg three times a day was added to memantine 10 mg twice a day.

[4] = test system: person with extremely severe tardive dyskinesia and dystonia; assay: Case Report 4: clinical course and physician examination; type: in vivo, human; settings: Case 4
[5] = test system: person two with long-standing TD; assay: Case Report 1: clinical observation of TD with blepharospasm; type: in vivo, human; settings: Case 1; for effect on involuntary movements of TD: clinical observation, acamprosate 333 mg four times a day; for cognitive function (energy, attention, concentration): subjective and objective
Protocol: Palliative treatment with alprazolam (an anxiolytic and GABA agonist via modulation; dosage 0.25 mg four times a day) and trihexyphenidyl (an anticholinergic antiparkinson drug that inhibits dopamine re-uptake at synapses; dosage 2 mg twice a day) was prescribed by another physician.
Initially, their other medications were maintained unchanged.
Nimodipine was discontinued, and the patient was begun on memantine at a dosage of 10 mg twice a day.
For the following 10 days they added 250 mg three times a day of chelated magnesium.

[6] = test system: person two with long-standing TD; assay: Motor Functions: Grooved Functions (Case 1); type: in vivo, human; settings: ON drug, lower score better; for Grooved Functions sec. DH: DH = right
Text: as §2

[7] = test system: person two with long-standing TD; assay: Trail Making Test, Trails B (Case 1); type: in vivo, human; settings: ON drug; for Trails B Seconds: lower score better
Text: as §1, §2

[8] = test system: person two with long-standing TD; assay: Simple Reaction Time (neuropsychological test, Case 1); type: in vivo, human; settings: lower score better
Protocol: On acamprosate, the patient was able to sustain concentration for prolonged periods. […] The patient's cognitive improvement was also assessed using formal neuropsychological measures. The patient was tested while on the drug, then taken off of the drug and tested two days later. On the drug, the patient was able to recall 13 of the 15 items after a short delay as well as 13 of the 15 items after a long delay, as measured by the Rey Auditory Verbal Learning Test. This was in comparison to the patient's ability while off the drug to recall only 7 of the 15 items after a short delay as well as 8 of the items after a long delay in tests performed. In addition, the patient was able to recognize all 15 of the items while on acamprosate but while off the drug (and while having been off of memantine for over 2 months) the patient could only recognize 10 of the items. The order of testing would give the advantage of familiarity to the off-drug condition. Nonetheless, the difference in favor of the on-drug condition was substantial.
as §1, §2

[9] = test system: person two with long-standing TD; assay: Choice Reaction Time (Case 1); type: in vivo, human; settings: lower score better
Text: as §1, §2

[10] = test system: person two with Parkinson's disease and peak-dose dyskinesia; assay: Case Report 3: peak-dose dyskinesia of treated Parkinson's disease; type: in vivo, human; settings: Case 3; for effect on peak-dose dyskinesia: added to antiparkinson regime, memantine 10 mg three times a day, acamprosate 666 mg three times, then 333 mg four times a day, baclofen 30 and 60 mg daily, magnesium 300 mg three times a day
Protocol: The patient's Parkinson's disease was treated using levodopa/carbidopa and bromocriptine.
Prior to beginning treatment with acamprosate, the patient was on an antiparkinson treatment regime that consisted of 1 mg of pergolide three times a day, 5 mg of selegiline twice a day, and a combination of levodopa/carbidopa consisting of 550-600 mg of levodopa and 125-150 mg of carbidopa administered in divided doses.
The patient began acamprosate as an addition to the antiparkinson regime described above. Initially, the patient received 666 mg of acamprosate administered three times a day. Two weeks later the regime was adjusted such that the patient received 333 mg of acamprosate four times a day, taking one 333 mg pill with each daytime dose of 100 mg levodopa and 25 mg carbidopa. The patient's bedtime does of controlled-release levodopa-carbidopa (200 mg of levodopa and 50 mg of carbidopa) was continued, but were given without acamprosate. […] To confirm that the patient's improvement was due to the administration of acamprosate, the patient was taken off the acamprosate. […] During the period off acamprosate, an attempt was made to replace acamprosate with baclofen (a GABA-receptor agonist) at a total daily dose of 30 mg, and then with baclofen at a total daily dose of 60 mg.
Several months later, magnesium (300 mg elemental magnesium, as a mixed chelate), was added to the regimen. It was taken three times a day, together with a one of the patient's regular doses of levodopa/carbidopa. […] To establish whether the improvement was due to magnesium, the magnesium was stopped after several weeks.

## CC12CC3CC(C)(C1)CC(N)(C3)C2 [memantine]
[1]
  PASAT 1.2 sec ISI errors: 28/49
  PASAT 1.6 sec ISI errors: 21/49
  PASAT 2.0 sec ISI errors: 17/49
  PASAT 2.4 sec ISI errors: 13/49
[2]
  Trails A Errors: 0
  Trails A Seconds: 28″
[3]
  maximum dose attainable without side effects: 10 mg twice a day
[3]; 5 mg three times a day
  involuntary movements: virtually no involuntary movements noted at the peak of a given dose
[3]; 5 mg twice a day
  blepharospasm after first two weeks: marked improvement in blepharospasm
[3]; 10 mg twice a day
  involuntary movements after 6 months of treatment: no blepharospasm or limb chorea, and only mild peri-oral movements
[3]; above 10 mg twice a day
  complaints above maximum tolerated dose: dizziness
[4]; memantine 10 mg three times a day added to acamprosate and magnesium sulfate
  effect on movement disorder: aggravated their movement disorder
[5]; 5 mg three times a day
  side effects at reduced dose: without perceptible side effects
[5]; 10 mg twice a day
  time to reduction of involuntary movements: ≤ 24 h
[5]; memantine 10 mg twice a day
  effect on involuntary movements of TD: substantially greater degree than had been observed with nimodipine
[5]; nimodipine 30 mg four times a day, memantine 10 mg twice a day
  adverse effects: a sense of mild intoxication
[5]
  cognitive function (energy, attention, concentration): improved energy, attention, and concentration
[6]
  Grooved Functions sec. DH: DH = 71″
  Grooved Functions sec. NDH: NDH = 70″
[7]
  Trails B Errors: 0
  Trails B Seconds: 118″
[8]
  Simple Reaction Time 500 Green: 284 ms
  Simple Reaction Time 500 Red: 266 ms
  Simple Reaction Time 1500 Green: 212 ms
  Simple Reaction Time 1500 Red: 224 ms
[9]
  Choice Reaction Time 500 Green: 362 ms
  Choice Reaction Time 500 Red: 421 ms
  Choice Reaction Time 1500 Green: 365 ms
  Choice Reaction Time 1500 Red: 422 ms
[10]
  effect on peak-dose dyskinesia: reduced their dyskinetic movements from severe to mild-to-moderate

## CC(=O)NCCCS(=O)(=O)O [acamprosate, calcium N-acetylhomotaurinate]
[1]; ON drug
  PASAT 1.2 sec ISI errors: 13/49
  PASAT 1.6 sec ISI errors: 11/49
  PASAT 2.0 sec ISI errors: 1/49
  PASAT 2.4 sec ISI errors: 4/49
[2]; ON drug
  Trails A Errors: 0
  Trails A Seconds: 20″
[3]; 333 mg three times a day added to memantine 10 mg twice a day
  peri-oral movements: peri-oral movements were eliminated
[3]; after memantine discontinued
  involuntary movements on acamprosate alone: continued free of involuntary movements
[4]
  time after resuming drug until previous level of benefit regained: 72 h
  time off drug until movement disorder returned to baseline: 24 h
[5]
  involuntary movements two months after reinstitution: absent except for very mild movements during times of stress
  time to recovery of energy, stamina, concentration and memory after re-instituting treatment: Within two days
  cognitive function (energy, attention, concentration): improved significantly
[5]; 333 mg four times a day
  time able to read a book: over an hour at a time
[5]; memantine 10 mg twice a day
  effect on involuntary movements of TD: became imperceptible
[5]; on the acamprosate regime
  fatigue: significantly decreased
[6]
  Grooved Functions sec. DH: DH = 61″
  Grooved Functions sec. NDH: NDH = 70″
[7]
  Trails B Errors: 0
  Trails B Seconds: 43″
[8]; ON drug
  Simple Reaction Time 500 Green: 286 ms
  Simple Reaction Time 500 Red: 272 ms
  Simple Reaction Time 1500 Green: 261 ms
  Simple Reaction Time 1500 Red: 264 ms
[9]; ON drug
  Choice Reaction Time 500 Green: 382 ms
  Choice Reaction Time 500 Red: 426 ms
  Choice Reaction Time 1500 Green: 408 ms
  Choice Reaction Time 1500 Red: 379 ms
[10]
  effect on levodopa/carbidopa treatment of hypokinesia and rigidity: no decrease in the efficacy
  periods without dyskinesia following each dose: up to two hours
  time to return of dyskinetic movements after stopping: Within one day
  effect on peak-dose dyskinesia: reduced from moderate to mild intensity

From patent US7745493B2, “Methods of treating tardive dyskinesia and other movement disorders” (priority 1998, dated 2010)
